In patent publication US20120189543A1, “Compositions and Methods for Detecting and Treating Implant Loosening and Osteolysis” (priority 2009, published 2012):

How the values were obtained:
[1] = system: IL-1α mRNA; experiment: PMMA particle-induced IL-1α mRNA in cultured human monocytes (real-time RT-PCR); details: 4 hours pulse P-Dex 5 μM or free Dex 0.6 μM, PMMA 3 hours; n=3; p<0.05
Description: (§1) Cells were cultured for 24 hours at a cell density of 10^6 cells/mL in a-MEM medium (Invitrogen, Carlsbad, Calif.) supplemented with 10% fetal bovine serum (VWR, West Chester, Pa.) and 1% antibiotic/antimycotic (Invitrogen, Carlsbad, Calif.) in the presence of 10 ng/mL human M-CSF (Peprotech, Rocky Hill, N.J.) in 24-well tissue culture plates (1 mL/well). Cells were then pulsed for 4 hours with P-Dex (5 μM) or free Dex (dexamethasone phosphate sodium, 0.6 μM), washed and replenished with fresh medium. […] After 24 hours, cells were treated +/−PMMA particles (30 particles/cell) for 3 hours. Total cellular RNA was prepared (RNeasy, Qiagen) and analyzed by real-time RT-PCR as previously described for inflammatory cytokines (IL 1-α, IL-1- β).

[2] = system: pro-inflammatory cytokine response (e.g., TNF and IL-1); experiment: Particle-induced pro-inflammatory cytokine response in human monocytes; details: pretreatment of PMMA challenged monocytes
Description: as §1

[3] = system: IL-1β mRNA; experiment: PMMA particle-induced IL-1β mRNA in cultured human monocytes (real-time RT-PCR); details: 4 hours pulse P-Dex 5 μM or free Dex 0.6 μM, PMMA 3 hours; n=3
Description: as §1

[4] = system: PMMA particle implantation site (calvaria); parameters: species or system Swiss Webster mice; details: mouse, in vivo
Description: The group injected with PBS was used as a negative control and was given the same dose of P-IRDye. The mice were imaged prior to and daily after contrast agent injection using an XENOGEN IVIS® 200 Series Imaging System (Hopkinton, Mass.) to evaluate the distribution of the HPMA copolymer conjugate continuously for the 6 days.

Row | Compound | IL-1α mRNA level of PMMA group compared with treated group [1] | effect of pretreatment on particle-induced pro-inflammatory cytokine response [2] | IL-1β mRNA level of PMMA group compared with treated group [3] | NIR signal at particle implantation site, % of the original signal intensity [4] [%] | persistence of the P-IRDye signal [4]
1 | C[C@@H]1C[C@H]2[C@@H]3CCC4=CC(=O)C=C[C@]4(C)[C@@]3(F)[C@@H](O)C[C@]2(C)[C@@]1(O)C(=O)COP(=O)([O-])[O-].[Na+].[Na+] [Dex, dexamethasone phosphate sodium] | significantly higher | significant repression | higher (but not significantly) | – | –
2 | IRDye 800CW-labeled HPMA Copolymer [P-IRDye] | – | – | – | 60 | over 7 days
